From PMC10794982, “β-Caryophyllene Inhibits Monoacylglycerol Lipase Activity and Increases 2-Arachidonoyl Glycerol Levels In Vivo: A New Mechanism of Endocannabinoid-Mediated Analgesia?” (Molecular Pharmacology, 2024)

Experiments:
[1] = target: T1, monoacylglycerol lipase (MAGL) (Homo sapiens, UniProt Q99685); experiment: modified Cayman MAGL inhibitor kit, 2-AG hydrolysis to arachidonic acid by HPLC-MS/MS; assay type: biochemical
T1 construct: gene MGLL
T1 sequence (Q99685 1-303): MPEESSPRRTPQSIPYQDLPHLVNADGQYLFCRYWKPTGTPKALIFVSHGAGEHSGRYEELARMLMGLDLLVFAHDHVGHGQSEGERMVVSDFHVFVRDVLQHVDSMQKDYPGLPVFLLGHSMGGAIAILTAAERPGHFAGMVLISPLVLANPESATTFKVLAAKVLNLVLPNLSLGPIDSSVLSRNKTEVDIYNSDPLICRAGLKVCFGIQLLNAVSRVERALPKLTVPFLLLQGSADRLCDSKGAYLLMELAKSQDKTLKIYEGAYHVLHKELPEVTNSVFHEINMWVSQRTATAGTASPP

[2] = target: T1, monoacylglycerol lipase (MAGL); experiment: hydrolysis by kit MAGL, arachidonic acid product by HPLC-MS/MS; assay type: biochemical
Protocol: hydrolysis by kit MAGL, arachidonic acid product by HPLC-MS/MS on monoacylglycerol lipase (MAGL) | natural substrate 2-AG, which is hydrolyzed by MAGL to glycerol and AA. AA concentrations were determined using HPLC-MS/MS

| SMILES | IC50 [1] [µM] | hydrolysis by kit MAGL, arachidonic acid product by HPLC-MS/MS [2] |
| --- | --- | --- |
| C=C1CC/C=C(\C)CC[C@@H]2[C@@H]1CC2(C)C [BCP, β-Caryophyllene] | 15.8 | – |
| CCCCC/C=C\C/C=C\C/C=C\C/C=C\CCCC(=O)OC(CO)CO [2-AG, 2-arachidonoylglycerol] | – | natural substrate 2-AG, which is hydrolyzed by MAGL to glycerol and AA. AA concentrations were determined using HPLC-MS/MS |
